Source: ChEMBL document CHEMBL3580614, “Hypermongones A-J, Rare Methylated Polycyclic Polyprenylated Acylphloroglucinols from the Flowers of Hypericum monogynum” (J Nat Prod, 2015)
pIC50: −log10 of the molar value.

How the values were obtained:
[1] = test system: RAW264.7; test: Antiinflammatory activity in mouse RAW264.7 cells assessed as inhibition of LPS-induced NO production incubated for 2 hrs prior to LPS-challenge measured after 24 hrs by Greiss assay; format: functional, cell-based
[2] = test system: RAW264.7; test: Cytotoxicity against mouse RAW264.7 cells assessed as cell viability up to 100 uM; format: cell-based

Compound | pIC50 [1] | Activity [2]
CC(C)=CCC[C@]1(C)[C@@H](CC=C(C)C)C[C@@]2(C)C(=O)[C@]1(C(=O)C(C)C)C(=O)C1=C2O[C@@H](C(C)(C)O)C1 | 4.83 | Non-toxic
CC(C)=CCC[C@]1(C)[C@@H](CC=C(C)C)C[C@]2(C)C(=O)C3=C(O[C@H](C(C)(C)O)C3)[C@@]1(C(=O)C(C)C)C2=O | < 4.30 | Non-toxic
CNC(=N)NCCC[C@H](N)C(=O)O [TILARGININE] | 4.41 | Non-toxic
CC[C@H](C)C(=O)[C@]12C(=O)[C@](C)(C[C@H](CC=C(C)C)[C@@]1(C)CCC=C(C)C)C(=O)C1=C2O[C@@H](C(C)(C)O)C1 | 4.84 | Non-toxic
CC(C)=CCC[C@]1(C)[C@@H](CC=C(C)C)C[C@]2(C)C(=O)C3=C(O[C@@H](C(C)(C)O)C3)[C@@]1(C(=O)C(C)C)C2=O | 4.56 | Non-toxic
CC[C@H](C)C(=O)[C@@]12C(=O)C3=C(O[C@@H](C(C)(C)O)C3)[C@@](C)(C[C@H](CC=C(C)C)[C@@]1(C)CCC=C(C)C)C2=O | 4.82 | Non-toxic
CC(C)=CCC[C@]1(C)[C@@H](CC=C(C)C)C[C@@]2(C)C(=O)[C@]1(C(=O)C(C)C)C(=O)C1=C2O[C@H](C(C)(C)O)C1 | 5.02 | Non-toxic
CC[C@H](C)C(=O)[C@]12C(=O)[C@](C)(C[C@H](CC=C(C)C)[C@@]1(C)CCC=C(C)C)C(=O)C1=C2O[C@H](C(C)(C)O)C1 | 4.63 | Non-toxic
CC[C@H](C)C(=O)[C@@]12C(=O)C3=C(O[C@H](C(C)(C)O)C3)[C@@](C)(C[C@H](CC=C(C)C)[C@@]1(C)CCC=C(C)C)C2=O | 4.73 | Non-toxic
